Test results reported in patent US20150050388A1, “SYNBIOTIC FOOD COMPOSITION CONTAINING TAGATOSE AND PROBIOTIC LACTIC ACID BACTERIA” (CJ CHEILJEDANG CORPORATION, priority 2012, published 2015).

Tests used:
[1] = system: lactic acid bacteria strains efficiently using tagatose; assay: Growth curves of lactic acid bacteria on other prebiotics (Example 3); type: cell-based; conditions: 9 strains, 37° C., live cell count at 0, 5, 10, 24 and 48 hours
Description: Capacity of using other prebiotics except for tagatose was evaluated, compared and analyzed using 9 strains having excellent capacity of using tagatose among the 19 strains identified in Example 2.
For the present evaluation, at the time of preparing the medium used in Example 1, as a positive control group, glucose was used except for tagatose, and as negative control groups, fructooligosaccharide, lactitol, lactulose, and xylitol were used.
Each of the Lactobacillus casei (FIG. 1), Lactobacillus casei Shirota (FIG. 2), Lactobacillus casei DN114001 (FIG. 3), Lactobacillus casei-01® (FIG. 4), Lactobacillus rhamnosus (FIG. 5), Lactobacillus rhamnosus GG (FIG. 6), Pediococcus pentosaceus (FIG. 7), Lactobacillus farciminis (FIG. 8), and Lactobacillus acidophilus (FIG. 9) that were identified in Example 2 was inoculated in each of the media and cultured at 37° C. for 0, 5, 10, 24, and 48 hours. Then, a live cell count thereof was measured, such that a growth curve of each of the strains was obtained.

P. pentosaceus = assay: Capacity of using tagatose: live cell count after culture in minimal medium with added sugar; type: cell-based, Pediococcus pentosaceus; conditions: for Log10 Value of Live Cell Count: 24h, 37° C., minimal medium with the named sugar; for Tagatose/Glucose: ratio of 24h log10 live cell counts
Description: (§1) Pure culture solutions (1% culture solution in a stationary-phase in which a cell count of each of the strains is about 10^8 to 10^9 cfu/ml) of a total of 385 lactic acid bacteria strains were inoculated in selective media, respectively, and cultured in an incubator at 37° C. for 18 hours, followed by sub-culturing three times. Then, experiments proceeded at a state in which viability of the strain was optimal.
(§2) In order to evaluate the capacity of using tagatose of each of the lactic acid bacteria, a minimal medium composed of 5 g of peptone, 2.5 g of sodium acetate trihydrate, 0.5 ml of magnesium sulfate heptahydrate, 0.5 ml of manganese sulfate tetrahydrate, 5 ml of Tween 80, 1 g of diammonium citrate, 1 g of dipotassium phosphate, and 480 ml of distilled water was used.
(§3) After the medium was sterilized at 121° C. for 15 minutes and divided into three samples, 20 ml of 50% tagatose solution, 20 ml of 50% glucose solution, and 20 ml of 50% fructooligosaccharide solution (FOS) were added to each of the three samples, thereby preparing liquid media.
(§4) 1% of each of the lactic acid bacteria strains cultured as described above was inoculated in the prepared medium and cultured in an incubator at 37° C. for 24 hours. Thereafter, absorbance of each of the cultured strains was measured using an ELISA reader, and a cell count was measured through plate culture using a dilution solution, thereby evaluating the capacity of using tagatose.

L. casei DN114001 = assay: as above; type: cell-based, Lactobacillus casei
Description: as §1, §2, §3, §4

L. casei-01® = assay: as above; type: cell-based, Lactobacillus casei
Description: as §1, §2, §3, §4

L. casei Shirota = assay: as above; type: cell-based, Lactobacillus casei
Description: as §1, §2, §3, §4

L. casei = assay: as above; type: cell-based, Lactobacillus casei; conditions: for Log10 Value of Live Cell Count: 24h, 37° C., minimal medium with the named sugar; for Tagatose/Glucose: ratio of 24h log10 live cell counts
Description: as §1, §2, §3, §4

L. acidophilus = assay: as above; type: cell-based, Lactobacillus acidophilus; conditions: strain 19 (L. acidophilus)
Description: as §1
(§5) In order to evaluate the capacity of using tagatose of each of the lactic acid bacteria, a minimal medium composed of 5 g of peptone, 2.5 g of sodium acetate trihydrate, 0.5 ml of magnesium sulfate heptahydrate, 0.5 ml of manganese sulfate tetrahydrate, 5 ml of Tween 80, 1 g of diammonium citrate, 1 g of dipotassium phosphate, and 480 ml of distilled water was used. […]
as §4

L. farciminis = assay: as above; type: cell-based, Lactobacillus farciminis; conditions: strain 18 (L. farciminis)
Description: as §1, §5, §4

L. rhamnosus = assay: as above; type: cell-based, Lactobacillus rhamnosus; conditions: for Log10 Value of Live Cell Count: 24h, 37° C., minimal medium with the named sugar; for Tagatose/Glucose: ratio of 24h log10 live cell counts
Description: as §1, §2, §3, §4

L. rhamnosus GG = assay: as above; type: cell-based, Lactobacillus rhamnosus; conditions: for Log10 Value of Live Cell Count: 24h, 37° C., minimal medium with the named sugar; for Tagatose/Glucose: ratio of 24h log10 live cell counts
Description: as §1, §2, §3, §4

[2] = 24h, 37° C., minimal medium with the named sugar
[3] = ratio of 24h log10 live cell counts

OC[C@@H](O)[C@@H](O[C@@H]1O[C@H](CO)[C@H](O)[C@H](O)[C@H]1O)[C@H](O)[C@@H](O)CO [lactitol]
capacity of using the sugar (comparison of growth curves) [1]: low

O=C(CO)[C@@H](O)[C@@H](O)[C@H](O)CO [Tagatose, tagatose]
Log10 Value of Live Cell Count (P. pentosaceus; strain 16 (P. pentosaceus)): 8.798 | Tagatose/Glucose (P. pentosaceus; strain 16 (P. pentosaceus)): 99.1% | Log10 Value of Live Cell Count (P. pentosaceus; strain 17 (P. pentosaceus)): 8.953 | Tagatose/Glucose (P. pentosaceus; strain 17 (P. pentosaceus)): 98.8% | capacity of using tagatose (L. casei DN114001; L. casei DN114001, as compared to the other strains of Table 1): significantly excellent capacity of using tagatose | Log10 Value of Live Cell Count (L. casei DN114001; strain 8 (L. casei DN114001), 24h, 37° C., minimal medium with the named sugar): 8.953 | Tagatose/Glucose (L. casei DN114001; strain 8 (L. casei DN114001), ratio of 24h log10 live cell counts): 101.7% | capacity of using tagatose (L. casei-01®; L. casei-01, as compared to the other strains of Table 1): significantly excellent capacity of using tagatose | Log10 Value of Live Cell Count (L. casei-01®; strain 9 (L. casei-01®), 24h, 37° C., minimal medium with the named sugar): 9.068 | Tagatose/Glucose (L. casei-01®; strain 9 (L. casei-01®), ratio of 24h log10 live cell counts): 101.4% | capacity of using tagatose (L. casei Shirota; L. casei Shirota, as compared to the other strains of Table 1): significantly excellent capacity of using tagatose | Log10 Value of Live Cell Count (L. casei Shirota; strain 7 (L. casei Shirota), 24h, 37° C., minimal medium with the named sugar): 9.054 | Tagatose/Glucose (L. casei Shirota; strain 7 (L. casei Shirota), ratio of 24h log10 live cell counts): 101.4% | Log10 Value of Live Cell Count (L. casei; strain 1 (L. casei)): 7.882 | Tagatose/Glucose (L. casei; strain 1 (L. casei)): 100.3% | Log10 Value of Live Cell Count (L. casei; strain 2 (L. casei)): 8.137 | Tagatose/Glucose (L. casei; strain 2 (L. casei)): 100.1% | Log10 Value of Live Cell Count (L. casei; strain 3 (L. casei)): 8.240 | Tagatose/Glucose (L. casei; strain 3 (L. casei)): 99.6% | Log10 Value of Live Cell Count (L. casei; strain 4 (L. casei)): 8.424 | Tagatose/Glucose (L. casei; strain 4 (L. casei)): 99.0% | Log10 Value of Live Cell Count (L. casei; strain 5 (L. casei)): 8.449 | Tagatose/Glucose (L. casei; strain 5 (L. casei)): 93.1% | Log10 Value of Live Cell Count (L. casei; strain 6 (L. casei)): 8.767 | Tagatose/Glucose (L. casei; strain 6 (L. casei)): 98.8% | Log10 Value of Live Cell Count (L. acidophilus; [2]): 7.913 | Tagatose/Glucose (L. acidophilus; [3]): 98.4% | Log10 Value of Live Cell Count (L. farciminis; [2]): 8.601 | Tagatose/Glucose (L. farciminis; [3]): 99.2% | Log10 Value of Live Cell Count (L. rhamnosus; strain 10 (L. rhamnosus)): 7.939 | Tagatose/Glucose (L. rhamnosus; strain 10 (L. rhamnosus)): 98.5% | Log10 Value of Live Cell Count (L. rhamnosus; strain 11 (L. rhamnosus)): 8.031 | Tagatose/Glucose (L. rhamnosus; strain 11 (L. rhamnosus)): 99.2% | Log10 Value of Live Cell Count (L. rhamnosus; strain 12 (L. rhamnosus)): 8.059 | Tagatose/Glucose (L. rhamnosus; strain 12 (L. rhamnosus)): 98.5% | Log10 Value of Live Cell Count (L. rhamnosus; strain 13 (L. rhamnosus)): 8.169 | Tagatose/Glucose (L. rhamnosus; strain 13 (L. rhamnosus)): 99.5% | capacity of using tagatose (L. rhamnosus GG; L. rhamnosus GG, as compared to the other strains of Table 1): significantly excellent capacity of using tagatose | Log10 Value of Live Cell Count (L. rhamnosus GG; strain 14 (L. rhamnosus GG)): 8.548 | Tagatose/Glucose (L. rhamnosus GG; strain 14 (L. rhamnosus GG)): 105.0% | Log10 Value of Live Cell Count (L. rhamnosus GG; strain 15 (L. rhamnosus GG)): 8.822 | Tagatose/Glucose (L. rhamnosus GG; strain 15 (L. rhamnosus GG)): 103.5%
